Test results reported in patent publication US10662194B2, “Substituted 6-anilino-9-heterocyclylpurine derivatives for inhibition of plant stress” (UNIVERZITA PALACKEHO V OLOMOUCI, priority 2014, dated 2020).
Marks after values point to notes of the source that are not given here.

Columns and labels:
[1] = tested on: winter rapeseed variety Benefit; assay: Seed coating, emergence and freezing tolerance of winter rapeseed (field experiment); type: in vivo; conditions: 50 μM seed coating
Description: To evaluate the effect of seed coating with compound 12 on yield forming traits of winter rapeseed field plot experiment was performed in season 2010/2011 on locality Opava, Czech Republic. Seeds of winter rapeseed variety Benefit (Selgen) were coated with 50 μM concentration of compound 12 mixed into the seed coating treatment Cruiser OSR (Syngenta; 15 L of solution per 1000 kg of seeds), seeds coated with only Cruiser OSR were used for control variant. The seeds were dried and then sown in the sowing rate 700.000 seeds per hectare in 4 replications per each variant in randomized positions (each replication was 10 square meter plot). In the experiment plant emergence, freezing tolerance and final seed yield were scored. The frost tolerance was estimated by method described in (Janáček, J., Prášil, I.: Quantification of plant frost injury by nonlinear fitting of an s-shaped function. Cryo-Letters vol. 12, 1991, no. 7, 47-52).

ARR5:GUS reporter gene = assay: Induction of cytokinin reporter ARR5:GUS in transgenic Arabidopsis plants; type: in vivo; conditions: 0.01-10 μM, 17 h, FIG. 2
Description: Cytokinins induce in Arabidopsis transcription of gene ARR5, a member of A-type response regulator family classified as cytokinin primary response genes being expressed down-stream of sensing by cytokinin receptors. We cultivated transgenic Arabidopsis plants harbouring PARR5::GUS reporter (D'Agostino et al. Plant Physiol. 124: 1706-1717, 2000) in MS medium containing cytokinin BAP, CKX inhibitor INCYDE and novel compounds 12 and 91 in concentrations 0.01, 0.1, 1, 5, 10 μM; DMSO (0.1%) was tested as solvent control. Seeds were surface-sterilized in 70% ethanol and then placed into wells of 6-well microtiter plate (TPP, Switzerland) containing 3 mL of MS medium in each well. After sowing plates were pretreated in dark at 4° C. to synchronize the germination of the seeds. […] Quantitative estimation of the level of ARR5:GUS gene induction was done according to method published by Romanov et al. (Romanov et al. FEBS Letters 515: 39-43, 2002). After extraction of proteins the GUS activity was determined using incubation with fluorogenic substrate MUG (4-methylumbelliferyl glucuronid; 1 h, 37° C.) and then fluorescence 365 nm and 460 nm (excitation and emission wavelengths) was recorded, as described in detail by Spíchal et al. (Spíchal et al. Plant and Cell Physiology 45: 1299-1305, 2004).

[2] = tested on: Salmonella typhimurium strains TA100 and TA98; assay: Ames MPF 98/100 Mutagenicity Assay; type: cell-based; conditions: up to 100 μM, +/−S9, FIG. 12
Description: The compound 12 was tested using Ames MPF™ 98/100 Mutagenicity Assay kit (Aniara, Ohio) that is employing Salmonella typhimurium strains TA100 (for the detection of base substitution mutations) and TA98 (for the detection of frameshift mutations) according to the instructions for use.

## COc1cccc(Nc2nc(Cl)nc3c2ncn3C2CCCCO2)c1 (stereo not drawn) [compound 12, 2-chloro-6-(3-methoxyanilino)-9-(tetrahydropyran-2-yl)purine]
[1]
  Estimated frost resistence (atrifical frost test) - Letal Temperature LT50: −12.3 *
  Number of emerged plants per sq meter - autumn (11th October, 2010): 60.0 per sq meter
  Plant height (cm) - autumn (11th October, 2010): 6.6 cm
  Seed yield (% of control): 103.1 % of control
  increase of artificially estimated frost tolerance: ~5%
  increase of the final seed yield: 3.1%
  more plants emerged in the same time compared to control: ~20%
[1]; 15 plants
  Leafs weight - autumn (22th October): 11.69**
  Root lenght (cm) - autumn (22th October): 14.63 cm
[1]; mean from 4 plots
  Seed yield (t/ha): 5.98 t/ha
ARR5:GUS reporter gene
  induction of ARR5:GUS expression: dose-dependent induction of ARR5:GUS expression
[2]
  mutagenic potential in Ames test: did not score positively
